Laboratory results taken from PubChem BioAssay (NCI).
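Protocol summary: plate cells (96-well), add compound at 5 concentrations, incubate 48 h, interpolate endpoints linearly. At the TGI there is no net growth.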

Assays:
Assay in all cases: NCI tumour cell line growth inhibition, 48 h
OVCAR-5 ovarian = system: OVCAR-5 ovarian
HOP-92 NSCLC = system: HOP-92 NSCLC
SF-295 CNS = system: SF-295 CNS
OVCAR-4 ovarian = system: OVCAR-4 ovarian
ACHN renal = system: ACHN renal
HT29 colon = system: HT29 colon
MDA-N = system: MDA-N
SK-OV-3 ovarian = system: SK-OV-3 ovarian
HOP-62 NSCLC = system: HOP-62 NSCLC
SK-MEL-2 melanoma = system: SK-MEL-2 melanoma
NCI-H460 lung = system: NCI-H460 lung
EKVX NSCLC = system: EKVX NSCLC
NCI-H226 lung = system: NCI-H226 lung
SF-539 CNS = system: SF-539 CNS
TK-10 renal = system: TK-10 renal
MALME-3M melanoma = system: MALME-3M melanoma
OVCAR-3 ovarian = system: OVCAR-3 ovarian
MDA-MB-435 = system: MDA-MB-435
DU-145 prostate = system: DU-145 prostate
NCI/ADR-RES ovarian = system: NCI/ADR-RES ovarian
A498 renal = system: A498 renal
MCF7 breast = system: MCF7 breast
NCI-H522 lung = system: NCI-H522 lung
HCC-2998 colon = system: HCC-2998 colon
IGROV1 ovarian = system: IGROV1 ovarian
U251 CNS = system: U251 CNS
786-0 renal = system: 786-0 renal
A549 NSCLC = system: A549 NSCLC
OVCAR-8 ovarian = system: OVCAR-8 ovarian
RPMI-8226 leukemia = system: RPMI-8226 leukemia
MDA-MB-231 breast = system: MDA-MB-231 breast
SF-268 CNS = system: SF-268 CNS
HL-60(TB) leukemia = system: HL-60(TB) leukemia
UO-31 renal = system: UO-31 renal
COLO 205 colon = system: COLO 205 colon
T-47D breast = system: T-47D breast
HCT-15 colon = system: HCT-15 colon
KM12 colon = system: KM12 colon
UACC-62 melanoma = system: UACC-62 melanoma
SK-MEL-28 melanoma = system: SK-MEL-28 melanoma
HS 578T breast = system: HS 578T breast
SR leukemia = system: SR leukemia
K-562 leukemia = system: K-562 leukemia
SW-620 colon = system: SW-620 colon
UACC-257 melanoma = system: UACC-257 melanoma
RXF 393 renal = system: RXF 393 renal
CCRF-CEM leukemia = system: CCRF-CEM leukemia
SNB-75 CNS = system: SNB-75 CNS
LOX IMVI melanoma = system: LOX IMVI melanoma
MOLT-4 leukemia = system: MOLT-4 leukemia
M14 melanoma = system: M14 melanoma
CAKI-1 renal = system: CAKI-1 renal
PC-3 prostate = system: PC-3 prostate
NCI-H23 lung = system: NCI-H23 lung
SK-MEL-5 melanoma = system: SK-MEL-5 melanoma
SNB-19 CNS = system: SNB-19 CNS
SN12C renal = system: SN12C renal
BT-549 breast = system: BT-549 breast
HCT-116 colon = system: HCT-116 colon

## CCCC[C@@H](C)/C=C1\CN2CCC[C@H]2[C@@](C)(O)[C@@H]1O
OVCAR-5 ovarian
  TGI: > 100 µM
HOP-92 NSCLC
  TGI: 73.6 µM
SF-295 CNS
  TGI: > 100 µM
OVCAR-4 ovarian
  TGI: > 100 µM
ACHN renal
  TGI: > 100 µM
HT29 colon
  TGI: > 100 µM
MDA-N
  TGI: > 100 µM
SK-OV-3 ovarian
  TGI: > 100 µM
HOP-62 NSCLC
  TGI: > 100 µM
SK-MEL-2 melanoma
  TGI: > 100 µM
NCI-H460 lung
  TGI: > 100 µM
EKVX NSCLC
  TGI: > 100 µM
NCI-H226 lung
  TGI: > 100 µM
SF-539 CNS
  TGI: > 100 µM
TK-10 renal
  TGI: > 100 µM
MALME-3M melanoma
  TGI: > 100 µM
OVCAR-3 ovarian
  TGI: > 100 µM
MDA-MB-435
  TGI: > 100 µM
DU-145 prostate
  TGI: 60.4 µM
NCI/ADR-RES ovarian
  TGI: > 100 µM
A498 renal
  TGI: > 100 µM
MCF7 breast
  TGI: > 100 µM
NCI-H522 lung
  TGI: > 100 µM
HCC-2998 colon
  TGI: > 100 µM
IGROV1 ovarian
  TGI: > 100 µM
U251 CNS
  TGI: > 100 µM
786-0 renal
  TGI: > 100 µM
A549 NSCLC
  TGI: > 100 µM
OVCAR-8 ovarian
  TGI: > 100 µM
RPMI-8226 leukemia
  TGI: > 100 µM
MDA-MB-231 breast
  TGI: > 100 µM
SF-268 CNS
  TGI: > 100 µM
HL-60(TB) leukemia
  TGI: 11 µM
UO-31 renal
  TGI: > 100 µM
COLO 205 colon
  TGI: > 100 µM
T-47D breast
  TGI: > 100 µM
HCT-15 colon
  TGI: > 100 µM
KM12 colon
  TGI: > 100 µM
UACC-62 melanoma
  TGI: > 100 µM
SK-MEL-28 melanoma
  TGI: > 100 µM
HS 578T breast
  TGI: > 100 µM
SR leukemia
  TGI: > 100 µM
K-562 leukemia
  TGI: > 100 µM
SW-620 colon
  TGI: > 100 µM
UACC-257 melanoma
  TGI: > 100 µM
RXF 393 renal
  TGI: 38.1 µM
CCRF-CEM leukemia
  TGI: > 100 µM
SNB-75 CNS
  TGI: 85.1 µM
LOX IMVI melanoma
  TGI: > 100 µM
MOLT-4 leukemia
  TGI: > 100 µM
M14 melanoma
  TGI: > 100 µM
CAKI-1 renal
  TGI: 71.2 µM
PC-3 prostate
  TGI: > 100 µM
NCI-H23 lung
  TGI: > 100 µM
SK-MEL-5 melanoma
  TGI: > 100 µM
SNB-19 CNS
  TGI: > 100 µM

## O=C(N=Nc1c(O)[nH]c2c(Cl)cc(Cl)cc12)c1ccccc1O
OVCAR-5 ovarian
  TGI: 32.4 µM
HOP-92 NSCLC
  TGI: 28.6 µM
SF-295 CNS
  TGI: 28.4 µM
OVCAR-4 ovarian
  TGI: 26.9 µM
ACHN renal
  TGI: 25.8 µM
HT29 colon
  TGI: 34.8 µM
MDA-N
  TGI: 28.1 µM
SK-OV-3 ovarian
  TGI: 30.6 µM
HOP-62 NSCLC
  TGI: 29.2 µM
SK-MEL-2 melanoma
  TGI: 26.1 µM
NCI-H460 lung
  TGI: 27.6 µM
EKVX NSCLC
  TGI: 26.3 µM
NCI-H226 lung
  TGI: 29.4 µM
SF-539 CNS
  TGI: 29.6 µM
TK-10 renal
  TGI: 29.3 µM
MALME-3M melanoma
  TGI: 27.1 µM
OVCAR-3 ovarian
  TGI: 25.1 µM
MDA-MB-435
  TGI: 26.9 µM
SN12C renal
  TGI: 30.5 µM
NCI/ADR-RES ovarian
  TGI: 26.3 µM
A498 renal
  TGI: 30.8 µM
MCF7 breast
  TGI: 41 µM
HCC-2998 colon
  TGI: 31.1 µM
IGROV1 ovarian
  TGI: 26.9 µM
U251 CNS
  TGI: 21 µM
786-0 renal
  TGI: 26.3 µM
A549 NSCLC
  TGI: 27.4 µM
BT-549 breast
  TGI: 27.7 µM
OVCAR-8 ovarian
  TGI: 25.2 µM
MDA-MB-231 breast
  TGI: 30.1 µM
HL-60(TB) leukemia
  TGI: 43.4 µM
UO-31 renal
  TGI: 24.3 µM
COLO 205 colon
  TGI: 38.5 µM
HCT-116 colon
  TGI: 27.3 µM
HCT-15 colon
  TGI: 29.2 µM
KM12 colon
  TGI: 29.5 µM
UACC-62 melanoma
  TGI: 24.8 µM
SK-MEL-28 melanoma
  TGI: 30 µM
HS 578T breast
  TGI: 29 µM
SR leukemia
  TGI: 23.7 µM
SW-620 colon
  TGI: 34.5 µM
UACC-257 melanoma
  TGI: 33.2 µM
RXF 393 renal
  TGI: 25.3 µM
CCRF-CEM leukemia
  TGI: 46.9 µM
SNB-75 CNS
  TGI: 22.8 µM
LOX IMVI melanoma
  TGI: 28 µM
MOLT-4 leukemia
  TGI: 31 µM
M14 melanoma
  TGI: 30.3 µM
CAKI-1 renal
  TGI: 31.1 µM
PC-3 prostate
  TGI: 29 µM
NCI-H23 lung
  TGI: 33.1 µM
SK-MEL-5 melanoma
  TGI: 28.7 µM
SNB-19 CNS
  TGI: 27.8 µM
